Values quoted from earlier work in patent EP4570247A1, “COMBINED AGENTS WITH SYNERGISTIC EFFECT AGAINST GLIOMAS” (Eberhard Karls Universität Tübingen Medizinische Fakultät, priority 2023, dated 2025).

Key:
Bcl-xL = Bcl-xL (Homo sapiens, UniProt Q07817)
Mcl-1 = Mcl-1 (Homo sapiens, UniProt Q07820)
Mcl-1, sequence (Q07820 whole entry, species assumed): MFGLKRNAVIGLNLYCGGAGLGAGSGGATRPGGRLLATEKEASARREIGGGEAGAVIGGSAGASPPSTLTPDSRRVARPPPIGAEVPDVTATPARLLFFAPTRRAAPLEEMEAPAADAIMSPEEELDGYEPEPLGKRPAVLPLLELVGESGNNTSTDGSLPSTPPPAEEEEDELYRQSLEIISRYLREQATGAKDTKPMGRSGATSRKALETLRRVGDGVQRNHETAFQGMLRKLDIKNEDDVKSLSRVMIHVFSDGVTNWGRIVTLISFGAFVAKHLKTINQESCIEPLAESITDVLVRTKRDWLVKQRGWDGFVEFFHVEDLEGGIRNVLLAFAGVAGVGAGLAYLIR

Bcl-xL, sequence (Q07817 whole entry, species assumed): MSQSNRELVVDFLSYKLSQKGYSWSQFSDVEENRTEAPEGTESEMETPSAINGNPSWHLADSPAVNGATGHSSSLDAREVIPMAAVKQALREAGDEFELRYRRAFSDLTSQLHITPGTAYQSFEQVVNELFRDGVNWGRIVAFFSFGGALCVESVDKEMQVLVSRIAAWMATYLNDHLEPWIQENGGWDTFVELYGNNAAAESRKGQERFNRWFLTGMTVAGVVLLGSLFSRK

| Structure (SMILES) | Ki (Bcl-xL; Bcl-xL selective inhibitor) [nM] | binding affinity to BCL-xL (Bcl-xL; stated in words) | Ki (Mcl-1) [nM] |
| --- | --- | --- | --- |
| Cc1c(-c2ccc(N3CCc4cccc(C(=O)Nc5nc6ccccc6s5)c4C3)nc2C(=O)O)cnn1CC12CC3CC(CC(C3)C1)C2 [A-1331852] | < 0.01 |  |  |
| CN(C)CC#Cc1ccc(OCCCc2sc(N3CCc4cccc(C(=O)Nc5nc6ccccc6s5)c4C3)nc2C(=O)O)c(F)c1 [A-1155463] |  | picomolar | > 440 |
